Laboratory results: ChEMBL document CHEMBL5042524, “Discovery of Novel Histone Deacetylase 6 (HDAC6) Inhibitors with Enhanced Antitumor Immunity of Anti-PD-L1 Immunotherapy in Melanoma” (J Med Chem, 2022)
Values after ≈ are worked out from the molar mass of the structure shown. Active and inactive are the calls of the source. No cut-off for these calls is given here.

Experiments:
[1] = biological target: Histone deacetylase; experiment: Inhibition of HDAC in human HeLa nuclear extracts using fluorometric substrate incubated for 30 mins by fluorescence plate reader analysis; assay type: cell-based
[2] = biological target: Histone deacetylase 1 (Homo sapiens, UniProt Q13547); experiment: Inhibition of recombinant human HDAC1 expressed in baculovirus expression system using Ac-Leu-Gly-Lys (Ac)-AMC as substrate preincubated for 5 mins followed by substrate addition and measured after 30 mins by fluorescence microtiter plate reader assay
Sequence of Histone deacetylase 1 (Q13547 whole entry): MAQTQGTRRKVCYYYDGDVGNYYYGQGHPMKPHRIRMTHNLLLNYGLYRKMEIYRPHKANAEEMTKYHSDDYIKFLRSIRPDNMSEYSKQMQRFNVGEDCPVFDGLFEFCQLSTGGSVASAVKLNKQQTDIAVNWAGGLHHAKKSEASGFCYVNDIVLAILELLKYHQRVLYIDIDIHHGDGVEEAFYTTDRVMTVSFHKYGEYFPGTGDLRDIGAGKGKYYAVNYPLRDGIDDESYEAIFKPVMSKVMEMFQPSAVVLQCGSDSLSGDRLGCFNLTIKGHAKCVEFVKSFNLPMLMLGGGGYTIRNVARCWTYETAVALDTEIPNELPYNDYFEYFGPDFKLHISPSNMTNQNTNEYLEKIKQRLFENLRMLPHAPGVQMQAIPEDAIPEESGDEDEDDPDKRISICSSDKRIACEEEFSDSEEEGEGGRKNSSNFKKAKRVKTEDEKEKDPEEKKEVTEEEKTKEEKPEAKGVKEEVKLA

[3] = biological target: T1, Histone deacetylase 8 (Homo sapiens, UniProt Q9BY41); experiment: Inhibition of full length recombinant human C-terminal His tagged HDAC8 expressed in baculovirus infected Sf9 insect cells using Ac-Leu-GlyLys (Tfa)-AMC as substrate preincubated for 5 mins followed by substrate addition and measured after 30 mins by fluorescence microtiter plate reader assay
T1 sequence (Q9BY41 whole entry): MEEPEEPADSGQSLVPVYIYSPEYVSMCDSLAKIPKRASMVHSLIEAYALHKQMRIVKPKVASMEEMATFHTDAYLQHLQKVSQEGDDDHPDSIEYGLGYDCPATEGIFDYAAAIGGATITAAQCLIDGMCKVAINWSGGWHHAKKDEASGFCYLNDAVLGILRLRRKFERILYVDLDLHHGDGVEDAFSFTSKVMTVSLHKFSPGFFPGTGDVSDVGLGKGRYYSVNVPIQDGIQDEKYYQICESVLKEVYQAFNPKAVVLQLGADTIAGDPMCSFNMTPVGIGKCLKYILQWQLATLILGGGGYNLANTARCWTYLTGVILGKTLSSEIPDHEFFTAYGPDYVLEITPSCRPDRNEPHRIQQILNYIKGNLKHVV

[4] = system: B16-F10; experiment: Induction of cell cycle arrest in mouse B16-F10 cells assessed as decrease in cells at G1 phase at 0.1 to 1 uM incubated for 48 hrs by RNase/PI staining based flow cytometry analysis; assay type: functional; conditions: dose 0.1-1 µM
[5] = system: Jurkat; experiment: Induction of apoptosis in human Jurkat T cells assessed as upregulation of acetylated Ku70 expression measured after 6 hrs by Western blot analysis; assay type: functional, cell-based; conditions: dose 0.2-2 µM
[6] = system: B16-F10; experiment: Effect on acetyl-H3 expression level in mouse B16-F10 cells at 1 to 8 uM incubated for 6 hrs by Western blot analysis; assay type: functional, cell-based; conditions: dose 1-8 µM
[7] = Resistance index, ratio of IC50 for antiproliferative activity against human YCC3/7 cells to IC50 for antiproliferative activity against human YCC-11 cells; assay type: functional
[8] = Inhibition of pig brain tubulin polymerization by spectrophotometric analysis; set-up: species or system Sus scrofa
[9] = Aqueous solubility of the compound incubated for 24 hrs by HPLC based shake-flask method; assay type: physicochemical; conditions: buffer
[10] = AUC(0 to t) in Sprague-Dawley rat at 10 mg/kg, po measured upto 48 hrs by LC-MS/MS analysis; assay type: ADME, organism-based; set-up: route oral, dose 10 mg/kg, time <=48; conditions: in vivo
[11] = MRT(0 to t) in Sprague-Dawley rat at 2 mg/kg, iv measured upto 48 hrs by LC-MS/MS analysis; assay type: ADME, organism-based; conditions: in vivo
[12] = MRT(0 to t) in Sprague-Dawley rat at 10 mg/kg, po measured upto 48 hrs by LC-MS/MS analysis; assay type: ADME, organism-based; conditions: in vivo
[13] = MRT (0 to infinity) in Sprague-Dawley rat at 2 mg/kg, iv measured upto 48 hrs by LC-MS/MS analysis; assay type: ADME, organism-based; conditions: in vivo
[14] = Half life in Sprague-Dawley rat at 2 mg/kg, iv measured upto 48 hrs by LC-MS/MS analysis; assay type: ADME, organism-based; conditions: in vivo
[15] = Half life in Sprague-Dawley rat at 10 mg/kg, po measured upto 48 hrs by LC-MS/MS analysis; assay type: ADME, organism-based; conditions: in vivo
[16] = Tmax in Sprague-Dawley rat at 2 mg/kg, iv measured upto 48 hrs by LC-MS/MS analysis; assay type: ADME, organism-based; conditions: in vivo
[17] = Clearance in Sprague-Dawley rat at 2 mg/kg, iv measured upto 48 hrs by LC-MS/MS analysis; assay type: ADME, organism-based; conditions: in vivo
[18] = Clearance in Sprague-Dawley rat at 10 mg/kg, po measured upto 48 hrs by LC-MS/MS analysis; assay type: ADME, organism-based; conditions: in vivo
[19] = Apparent volume of distribution in Sprague-Dawley rat at 2 mg/kg, iv measured upto 48 hrs by LC-MS/MS analysis; assay type: ADME, organism-based; conditions: in vivo
[20] = Apparent volume of distribution in Sprague-Dawley rat at 10 mg/kg, po measured upto 48 hrs by LC-MS/MS analysis; assay type: ADME, organism-based; conditions: in vivo
[21] = Cmax in Sprague-Dawley rat at 2 mg/kg, iv measured upto 48 hrs by LC-MS/MS analysis; assay type: ADME, organism-based; set-up: route intravenous, dose 2 mg/kg, time <=48; conditions: in vivo
[22] = system: B16-F10; experiment: Antitumor activity against mouse B16-F10 cells allografted in C57BL/6 mouse assessed as tumor growth inhibition at 50 mg/kg, ip administered daily for 14 days by caliper method (Rvb= 63%); assay type: functional; conditions: 336 h, time 14 day, read-out: TGI
[23] = system: B16-F10; experiment: Antitumor activity in mouse B16-F10 cells allografted in C57BL/6 mouse assessed as tumor growth inhibition at 50 mg/kg, ip administered for 14 days in presence of 2-(5-chloro-2-(3-cyanobenzyloxy)-4-((2-methylbiphenyl-3-yl)methoxy)benzylamino)-2-methylpropanoic acid by caliper method (Rvb= 63%); assay type: functional; conditions: 336 h, time 14 day, read-out: TGI
[24] = Toxicity in C57BL/6 mouse bearing B16-F10 tumor assessed as morphological changes in kidney at 50 mg/kg, ip administered for 14 days by H and E staining based microscopic analysis; assay type: organism-based; conditions: in vivo, 336 h, time 14 day
[25] = Toxicity in C57BL/6 mouse bearing B16-F10 tumor assessed as morphological changes in heart at 50 mg/kg, ip administered for 14 days by H and E staining based microscopic analysis; assay type: organism-based; conditions: in vivo, 336 h, time 14 day
[26] = Toxicity in C57BL/6 mouse bearing B16-F10 tumor assessed as morphological changes in liver at 50 mg/kg, ip administered for 14 days by H and E staining based microscopic analysis; assay type: organism-based; conditions: in vivo, 336 h, time 14 day
[27] = Cardiotoxicity in C57BL/6 mouse at 50 mg/kg, IG administered once daily via gavage for 14 days by ECG analysis; assay type: toxicity, organism-based; conditions: in vivo, po, 336 h, time 14 day
[28] = system: B16-F10; experiment: Antitumour activity against mouse B16-F10 cells allografted in C57BL/6 mouse model assessed as decrease in PD-L1 expression level by Western blot analysis relative to control; assay type: functional; set-up: scale not given: the % may be the effect or the level left
[29] = system: B16-F10; experiment: Antitumour activity against mouse B16-F10 cells allografted in C57BL/6 mouse model assessed as increase in CD3 positive/CD4 positive cells in tumor at 50 mg/kg, ip administered for 14 days by flow cytometry analysis (Rvb= 8.73%); assay type: functional; conditions: time 14 day
[30] = Toxicity in C57BL/6 mouse allografted with B16-F10 cells assessed as body weight loss at 50 mg/kg, ip administered daily for 14 days in combination with 2-(5-chloro-2-(3-cyanobenzyloxy)-4-((2-methylbiphenyl-3-yl)methoxy)benzylamino)-2-methylpropanoic acid; assay type: organism-based; conditions: in vivo, 336 h, time 14 day
[31] = system: Mus musculus; experiment: Myelosuppression in C57BL/6 mouse assessed as change in lymphocyte count at 50 mg/kg, IG administered once daily via gavage for 14 days; assay type: toxicity, organism-based; conditions: in vivo, po, 336 h, time 14 day
[32] = system: Mus musculus; experiment: Myelosuppression in C57BL/6 mouse assessed as change in granulocyte count at 50 mg/kg, IG administered once daily via gavage for 14 days; assay type: toxicity, organism-based; conditions: in vivo, po, 336 h, time 14 day
[33] = Potency index, ratio of MS-275 IC50 to test compound IC50 for antiproliferative activity against human YCC3/7 cells assessed as cell growth inhibition; assay type: functional

Structure (SMILES): COc1ccc(-c2ncc(C(=O)NCCCCCCC(=O)NO)[nH]2)c(OC)c1
- IC50 [1]: 0.08 µM
- IC50 [2]: 4.66 µM
- IC50 [3]: 14.6 µM
- Activity [4]: Active
- Activity [5]: Dose-Dependent Effect
- Activity [6]: Active

Structure (SMILES): COc1ccc(-c2ncc(C(=O)NCCCCCCC(=O)NO)s2)c(OC)c1
- IC50 [1]: 0.04 µM
- IC50 [2]: 3.19 µM
- IC50 [3]: 9.02 µM
- Ratio IC50 [7]: 1.2
- IC50 [8]: > 100 µM
- Activity [5]: Dose-Dependent Effect
- solubility thermodynamic at 24 h [9]: 41.3 µg/mL (≈ 101 µM)
- AUC(0-t) at 48 h [10]: 134 ng·h/mL
- MRT last at 48 h [11]: 1.1 h
- MRT last at 48 h [12]: 7.4 h
- MRT inf [13]: 1.6 h
- half-life [14]: 6.2 h
- half-life [15]: 5.8 h
- Tmax [16]: 4.98 min
- clearance [17]: 105 mL/min/kg
- CL [18]: 2402 mL/min/kg
- Vz/F [19]: 76.5 L/kg
- Vz/F [20]: 1485.8 L/kg
- Cmax [21]: 875 ng/mL
- inhibition in vivo at 50 mg/kg [22]: 48%
- inhibition in vivo at 50 mg/kg [23]: 58%
- Activity [24]: Non-Toxic
- Activity [25]: Non-Toxic
- Activity [26]: Non-Toxic
- Activity [27]: Non-Toxic
- Activity [28]: 20%
- Activity [29]: 8.72%
- Activity [6]: Active
- Activity [30]: Non-Toxic
- Activity [31]: Non-Toxic
- Activity [32]: Non-Toxic
- Ratio IC50 [33]: 6
